Source: ChEMBL document CHEMBL1201862, “PubChem BioAssay data set” (2004)
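Where inhibition never reached the appropriate level, the endpoint shown equals the highest concentration tested. Otherwise, values were interpolated linearly from a five-concentration, 48-hour dose response in 96-well plates. GI50: concentration for 50% inhibition of growth.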 Activity calls are given as the source filed them. No stated cut-off is given here; in the data, active = GI50 up to about 1.1 µM and inactive = higher.

Key:
Assay in all cases: DTP human tumour cell line panel, 48 h
SK-MEL-2 = tested on: SK-MEL-2
HOP-92 = tested on: HOP-92
SK-MEL-5 = tested on: SK-MEL-5
HCT-15 = tested on: HCT-15
NCI-H23 = tested on: NCI-H23
SF-268 = tested on: SF-268
HOP-62 = tested on: HOP-62
NCI-H522 = tested on: NCI-H522
UACC-62 = tested on: UACC-62
OVCAR-8 = tested on: OVCAR-8
RPMI-8226 = tested on: RPMI-8226
SF-539 = tested on: SF-539
A498 = tested on: A498
SW-620 = tested on: SW-620
SK-MEL-28 = tested on: SK-MEL-28
EKVX = tested on: EKVX
SN12C = tested on: SN12C
Malme-3M = tested on: Malme-3M
LOX IMVI = tested on: LOX IMVI
HCC 2998 = tested on: HCC 2998
MCF7 = tested on: MCF7
NCI/ADR-RES = tested on: NCI/ADR-RES
TK-10 = tested on: TK-10
COLO 205 = tested on: COLO 205
M14 = tested on: M14
SF-295 = tested on: SF-295
MDA-MB-435 = tested on: MDA-MB-435
HCT-116 = tested on: HCT-116
NCI-H226 = tested on: NCI-H226
SNB-75 = tested on: SNB-75
OVCAR-3 = tested on: OVCAR-3
IGROV-1 = tested on: IGROV-1
MDA-MB-231 = tested on: MDA-MB-231
Hs-578T = tested on: Hs-578T
OVCAR-5 = tested on: OVCAR-5
786-0 = tested on: 786-0
OVCAR-4 = tested on: OVCAR-4
MOLT-4 = tested on: MOLT-4
MDA-N = tested on: MDA-N
CCRF-CEM = tested on: CCRF-CEM
PC-3 = tested on: PC-3
KM12 = tested on: KM12
SNB-19 = tested on: SNB-19
BT-549 = tested on: BT-549
DU-145 = tested on: DU-145
UACC-257 = tested on: UACC-257
T47D = tested on: T47D
SK-OV-3 = tested on: SK-OV-3
ACHN = tested on: ACHN
HL-60 = tested on: HL-60
A549 = tested on: A549
CAKI-1 = tested on: CAKI-1
U-251 = tested on: U-251
NCI-H460 = tested on: NCI-H460
RXF 393 = tested on: RXF 393
HT-29 = tested on: HT-29
K562 = tested on: K562
UO-31 = tested on: UO-31
SR = tested on: SR

Compound: CC1=C(CO)C(=O)O[C@@H]([C@@H](C)[C@H]2CC[C@H]3[C@@H]4C[C@@H](O)[C@@]5(O)CC=CC(=O)[C@]5(C)[C@H]4CC[C@]23C)C1 [JABOROSALACTONE D]
- GI50 (SK-MEL-2): 43.7 µM (inactive)
- GI50 (HOP-92): 42 µM (inactive)
- GI50 (SK-MEL-5): 32.6 µM (inactive)
- GI50 (HCT-15): 16.4 µM
- GI50 (NCI-H23): 21.2 µM (inactive)
- GI50 (SF-268): 92.3 µM (inactive)
- GI50 (HOP-62): 64 µM (inactive)
- GI50 (NCI-H522): 14.2 µM (inactive)
- GI50 (UACC-62): 29.6 µM (inactive)
- GI50 (OVCAR-8): 31.3 µM (inactive)
- GI50 (RPMI-8226): 24.9 µM (inactive)
- GI50 (SF-539): 31 µM (inactive)
- GI50 (A498): 18.7 µM (inactive)
- GI50 (SW-620): 21.7 µM (inactive)
- GI50 (SK-MEL-28): 42.1 µM (inactive)
- GI50 (EKVX): 49.2 µM (inactive)
- GI50 (SN12C): 42.4 µM (inactive)
- GI50 (Malme-3M): 15.7 µM (inactive)
- GI50 (LOX IMVI): 23.5 µM (inactive)
- GI50 (HCC 2998): 30.3 µM (inactive)
- GI50 (MCF7): 39.7 µM (inactive)
- GI50 (NCI/ADR-RES): 21.1 µM (inactive)
- GI50 (TK-10): > 100 µM (inactive)
- GI50 (COLO 205): 43.1 µM (inactive)
- GI50 (M14): 49.2 µM (inactive)
- GI50 (SF-295): 61.5 µM (inactive)
- GI50 (MDA-MB-435): 44.3 µM (inactive)
- GI50 (HCT-116): 20.5 µM (inactive)
- GI50 (NCI-H226): 35.8 µM (inactive)
- GI50 (SNB-75): 25.9 µM (inactive)
- GI50 (OVCAR-3): 36 µM (inactive)
- GI50 (IGROV-1): 15.1 µM (inactive)
- GI50 (MDA-MB-231): 31.3 µM (inactive)
- GI50 (Hs-578T): 35.7 µM (inactive)
- GI50 (OVCAR-5): > 100 µM (inactive)
- GI50 (786-0): 20.8 µM (inactive)
- GI50 (OVCAR-4): 32.2 µM (inactive)
- GI50 (MOLT-4): 26.6 µM (inactive)
- GI50 (MDA-N): 45 µM (inactive)
- GI50 (CCRF-CEM): 33.2 µM (inactive)
- GI50 (PC-3): 47 µM (inactive)
- GI50 (KM12): 19.8 µM (inactive)
- GI50 (SNB-19): 46.5 µM (inactive)
- GI50 (BT-549): 27.7 µM (inactive)
- GI50 (DU-145): 35.2 µM (inactive)
- GI50 (UACC-257): > 100 µM (inactive)
- GI50 (T47D): 58.1 µM (inactive)
- GI50 (SK-OV-3): 63.8 µM (inactive)
- GI50 (ACHN): 26.8 µM (inactive)
- GI50 (HL-60): 21.1 µM (inactive)
- GI50 (A549): 38 µM (inactive)
- GI50 (CAKI-1): > 100 µM (inactive)
- GI50 (U-251): 37 µM (inactive)
- GI50 (NCI-H460): 19.1 µM (inactive)
- GI50 (RXF 393): 22.3 µM (inactive)
- GI50 (HT-29): 33.1 µM (inactive)
- GI50 (K562): 26.8 µM (inactive)

Compound: O=C(N/N=C/c1ccccc1)c1c(F)c(F)c(F)c(F)c1F
- GI50 (SK-MEL-2): > 100 µM (inactive)
- GI50 (UO-31): > 100 µM (inactive)
- GI50 (HOP-92): 79.6 µM (inactive)
- GI50 (SK-MEL-5): > 100 µM (inactive)
- GI50 (HCT-15): 50.1 µM
- GI50 (SR): > 100 µM (inactive)
- GI50 (NCI-H23): > 100 µM (inactive)
- GI50 (SF-268): > 100 µM (inactive)
- GI50 (HOP-62): > 100 µM (inactive)
- GI50 (NCI-H522): 23.3 µM (inactive)
- GI50 (UACC-62): 33.3 µM (inactive)
- GI50 (OVCAR-8): > 100 µM (inactive)
- GI50 (RPMI-8226): > 100 µM (inactive)
- GI50 (SF-539): 67 µM (inactive)
- GI50 (A498): > 100 µM (inactive)
- GI50 (SW-620): 96.8 µM (inactive)
- GI50 (SK-MEL-28): > 100 µM (inactive)
- GI50 (EKVX): > 100 µM (inactive)
- GI50 (SN12C): > 100 µM (inactive)
- GI50 (Malme-3M): > 100 µM (inactive)
- GI50 (LOX IMVI): > 100 µM (inactive)
- GI50 (HCC 2998): > 100 µM (inactive)
- GI50 (NCI/ADR-RES): > 100 µM (inactive)
- GI50 (TK-10): > 100 µM (inactive)
- GI50 (COLO 205): > 100 µM (inactive)
- GI50 (M14): 56.8 µM (inactive)
- GI50 (SF-295): > 100 µM (inactive)
- GI50 (MDA-MB-435): 37.8 µM (inactive)
- GI50 (HCT-116): 56 µM (inactive)
- GI50 (NCI-H226): > 100 µM (inactive)
- GI50 (SNB-75): > 100 µM (inactive)
- GI50 (OVCAR-3): > 100 µM (inactive)
- GI50 (IGROV-1): > 100 µM (inactive)
- GI50 (MDA-MB-231): > 100 µM (inactive)
- GI50 (Hs-578T): > 100 µM (inactive)
- GI50 (OVCAR-5): > 100 µM (inactive)
- GI50 (OVCAR-4): > 100 µM (inactive)
- GI50 (MOLT-4): > 100 µM (inactive)
- GI50 (MDA-N): 28.8 µM (inactive)
- GI50 (CCRF-CEM): > 100 µM (inactive)
- GI50 (PC-3): > 100 µM (inactive)
- GI50 (KM12): 86.1 µM (inactive)
- GI50 (SNB-19): > 100 µM (inactive)
- GI50 (BT-549): > 100 µM (inactive)
- GI50 (DU-145): > 100 µM (inactive)
- GI50 (UACC-257): > 100 µM (inactive)
- GI50 (T47D): > 100 µM (inactive)
- GI50 (SK-OV-3): > 100 µM (inactive)
- GI50 (ACHN): > 100 µM (inactive)
- GI50 (HL-60): > 100 µM (inactive)
- GI50 (A549): > 100 µM (inactive)
- GI50 (CAKI-1): > 100 µM (inactive)
- GI50 (U-251): > 100 µM (inactive)
- GI50 (NCI-H460): > 100 µM (inactive)
- GI50 (RXF 393): > 100 µM (inactive)
- GI50 (HT-29): 54.2 µM (inactive)
- GI50 (K562): > 100 µM (inactive)
